Marks after values point to notes of the source that are not given here.
Key:
M. avium = assay: Intracellular growth of M. avium in mouse bone marrow-derived macrophages (mBMDM) in vitro, CFU assay; assay type: cell-based, Mycobacterium avium; conditions: for % of CFU: 10 μg/ml 72 h prior to infection, medium alone = 100%
Procedure: A previously studied M. avium strain 13 (Hayashi, et al. (1999) Infect. Immun. 67:3558-3565; Meylan, et al. (1990) Infect. Immun. 58:2564-2568), isolated from an AIDS patient at UCSD, San Diego, Calif., was used in all experiments. The organism was cultured on Middlebrook 7H11 agar (Difco Laboratories, Detroit, Mich.) with OADC enrichment at 37° C. in the presence of 5% CO2 for two weeks. Transparent colonies were selectively picked and further cultured on Middlebrook 7H11 plates for two more weeks. The resulting colonies, which were predominantly transparent (>90%), were then collected and washed two times with phosphate-buffered saline (PBS). The bacteria were finally resuspended in Middlebrook 7H9 broth (Difco Laboratories) and the OD600 of the suspension was adjusted to 0.15-0.2. The suspension was aliquoted and stored at −70° C. until use. The number of organisms/ml of this suspension was determined by the colony forming unit (CFU) assay.
The number of CFU in a given sample was determined by colony counting as described previously (Ogata, et al. (1992) Infect. Immun. 60:4720-4725). Serial 10-fold dilutions of total cell lysates or tissue homogenates were performed in PBS. 10 μl of each dilution were plated on Middlebrook 7H11 plates supplemented with OADC enrichment. The plates were incubated up to 14 days at 37° C. The number of colonies was counted every alternate day from day 10 onwards until no new colonies appeared. This yielded the number of CFU/10 μl. The number of CFU in each well was then calculated.
Preparation of Murine Macrophages. Mouse bone marrow-derived macrophages (mBMDM) were prepared from mouse bone marrow using L-cell conditioned media, as described in Martin-Orozco, et al. (1999) […] 11:1111-1118.
Alternatively, 5×10^4 mBMDM or hMDM was treated with ISS for 3 days before infection. Macrophages treated with M-ODN or with media alone served as controls. After 3 days, the cells were infected for 2 hrs with M. avium at a macrophage:bacteria ratio of 2:1 for mBMDM or of 1:10 for hMDM, and subsequently cultured in fresh media without antibiotics. To examine attachment and/or invasion of M. avium, the macrophages were lysed immediately after washing, and the number of bacteria were enumerated by the CFU assay. Intracellular growth of M. avium was determined on days 1, 3, and 7 after infection. To account for all the mycobacteria in each group, corresponding lysates were combined and then the number of CFU was determined. To examine the efficacy of anti-mycobacterial treatments, CFU recovered from cells treated with medium alone were considered as 100% growth.
To determine whether treatment with ISS after infection alters M. avium growth, adherent cells were first infected with M. avium for 2 hrs and then these cells were cultured with fresh media containing ISS. Infected cells treated with M-ODN or medium alone served as controls. At day 7, intracellular growth of M. avium was assessed by CFU assay.

IL-12 (p70) = assay: Serum IL-12 (p70) by ELISA in mice; assay type: in vivo
Procedure: Serum obtained from M. avium-infected mice that received ISS or PBS was assayed for IFN-γ and IL-12 by ELISA using mouse IFN-γ and IL-12 (p70) ELISA kits (Endogen, Inc. Woburn, […]), respectively, and following the manufacturer's instructions.

[1] = system: spleen and liver of M. avium-infected mice; assay: Histologic examination of spleen and liver of M. avium-infected mice; assay type: in vivo
Procedure: Sections of the spleen and liver collected from the experimental and control M. avium-infected mice at 2, 4, and 6 weeks post-infection, were fixed overnight in 10% buffered formalin at room temperature, and embedded in paraffin. The paraffin-embedded tissue was further sectioned (5 μm thickness), stained with hematoxylin-eosin and observed under an Olympus microscope. At least three sections from each organ of each of the experimental and control mice were evaluated and representative fields were viewed at 100×.

[2] = system: IFN-γ producing CD4+ and CD8+ T cells; assay: Intracellular IFN-γ staining and secreted IFN-γ ELISA of re-stimulated splenocytes from M. avium-infected mice; assay type: in vivo; conditions: ISS 50 μg/mouse; 10^7 organisms/mouse; three weeks post-infection; anti-CD3/anti-CD28 re-stimulation
Procedure: Mice were injected intradermally (i.d.) with ISS (50 μg/mouse). The control mice received M-ODN (50 μg/mouse) or PBS (50 μl/mouse). All mice were infected with 1×10^7 M. avium. Three weeks after infection, the mice were sacrificed and splenocytes from mice receiving the same treatment were pooled. Intracellular cytokine staining was performed using the Cytofix/Cytoperm kit (Pharmingen) according to the manufacturer's instructions. Briefly, the splenocytes were stimulated with anti-CD3 and anti-CD28 activating antibodies in the presence of monensin to allow intracellular IFN-γ to accumulate for 6 hrs. Next, surface CD4 and CD8 were stained for, the cells were fixed, and the plasma membranes were permeabilized, allowing for intracellular staining with anti-IFN-γ. The cells were analyzed on a FACSCalibur flow cytometer (Becton Dickenson). To study IFN-γ production, splenocytes were incubated with anti-CD3 and anti-CD28 antibodies in vitro for 24 hrs, and these supernatants were assayed for the presence of IFN-γ by sandwich ELISA (Martin-Orozco, et al. (1999) Int. Immun. 11:1111-1118).

[3] = system: indoleamine 2,3-dioxygenase (IDO); assay: IDO gene induction in vivo in mice, semi-quantitative RT-PCR; conditions: 50 μg i.v.; after 16 hrs
[4] = system: indoleamine 2,3-dioxygenase (IDO); assay: IDO gene transcription in mBMDM in vitro, semi-quantitative RT-PCR; assay type: cell-based, mouse; conditions: mBMDM treated 3 days prior to M. avium infection; 4, 8, 24 hrs after infection
Procedure: 1-4×10^6 mBMDM were treated with ISS or M-ODN. After 3 days, the cells were infected with M. avium for 2 hrs. At 2, 24, and 48 hrs after infection, the M. avium-infected macrophages were lysed and total RNA was isolated using the Trizol Reagent (Gibco BRL). The induction of IDO gene transcription was measured by semi-quantitative […]. First-strand cDNA preparation and PCR amplification was carried out using the SuperScript Pre-amplification System (Gibco BRL) and AdvanTaq Plus DNA polymerase (Clontech, San Francisco, Calif.), respectively. PCR products were visualized by electrophoresis on 2% agarose gels. The primer sequences used were as follows:
For in vitro studies mBMDM were treated with ISS for 3 days prior to M. avium infection. Then, cells were lysed at 4, 8, and 24 hrs after infection, total RNA was extracted, and semi-quantitative RT-PCR was performed.

[5] = other experiments, data not shown

5′-TGACTGTGAACGTTCGAGATGA-3′ (SEQ ID NO:1) [ISS]
inhibition of intracellular growth of M. avium in mBMDM from knockout mice (M. avium; NADPH oxidase−/−, iNOS−/−, TNF-α−/−, IL-12p40−/−, IFN-α/βR−/−, IFN-γR−/− mBMDM, ISS 3 days before infection): 60-85%
% of CFU (M. avium; mBMDM from IFN-αR−/− 129S6/SvEv, day 7): 10.9 ± 01.7^b %
% of CFU (M. avium; mBMDM from IFN-γR−/− 129S6/SvEv, day 7): 7.6 ± 01.3^b %
% of CFU (M. avium; mBMDM from IL-12 p40−/− C57B1/6, day 7): 26.4 ± 10.1^b %
% of CFU (M. avium; mBMDM from INOS−/− C57B1/6, day 7): 37.3 ± 4.6^b %
% of CFU (M. avium; mBMDM from NADPH oxidase−/− (gp91 phox−/−) C57B1/6, day 7): 11.4 ± 1.5^b %
% of CFU (M. avium; mBMDM from TNF-α−/− C57B1/6, day 7): 24.0 ± 6.0^b %
% of CFU (M. avium; mBMDM from Wild type 129S6/SvEV, day 7): 17.0 ± 4.0^b %
% of CFU (M. avium; mBMDM from Wild type C57B1/6, day 7): 18.2 ± 7.3^b %
reduction of bacterial growth in mBMDM (M. avium; mBMDM infected first, then treated, ISS 10 μg/ml, CLA 0.1 μg/ml, 7 days after infection, compared to medium alone): 68%
inhibition of intracellular growth of M. avium in mBMDM (M. avium; treated 72 hrs before infection, day 7): 80%
decrease of intracellular growth of M. avium in mBMDM (M. avium; treated for 7 days starting two hours after infection, vs M-ODN or medium alone): 68%
serum IL-12 levels (IL-12 (p70); M. avium-infected mice (10^6 organisms/mouse), 2, 4, 6 weeks, below ELISA detection): < 5 pg/mL
time for serum IL-12 to attain basal levels post injection (IL-12 (p70); [5]): ≤ 3 weeks
time of peak serum level of IL-12 after administration (IL-12 (p70); [5]): 1 days
histopathology of the livers ([1]; vs PBS-treated infected mice): no significant histopathological differences
granulomas in the spleen ([1]; week 4, vs infected mice treated with PBS): notably smaller in size and surrounded by mononuclear cells
granulomas in the spleens ([1]; week 6, vs PBS-treated infected mice): not significantly different
frequency of infection-specific IFN-γ positive CD4+ or CD8+ T cells [2]: did not further increase
IDO gene induction in vivo in the liver [3]: not in the liver
IDO gene induction in vivo in the lungs and spleen [3]: observed
optimal induction of IDO gene transcription [4]: require both treatment with ISS and M. avium infection

Source: patent US6552006B2, “Immunomodulatory polynucleotides in treatment of an infection by an intracellular pathogen” (The Regents of the University of California, priority 2000, dated 2003)
